# Assay results as given in paper PMC6467771 (Journal of medicinal chemistry, 2019).
# Read-outs that look alike come from different tables or passages of the source.
# Assays:
# [1] = Kinetic aqueous solubility; type: physicochemical; conditions: pH 7.4; for solubility kinetic: aqueous solution
# [2] = molecular target: FmlH (Escherichia coli, UniProt Q1RBS0); type: binding, Escherichia coli (UPEC, CFT073)
# [3] = Rat pharmacokinetics; type: in vivo; conditions: for renal clearance to the urine: after IV and PO administration
# [4] = tested on: uropathogenic Escherichia coli (UPEC); conditions: cited from earlier work
# [5] = Stability in simulated intestinal fluid; type: in vitro ADME
# [6] = Mouse liver microsome stability; type: in vitro ADME
# [7] = Mouse plasma stability; type: in vitro ADME
# [8] = Stability in simulated gastric fluid; type: in vitro ADME
# [9] = IC50, ELISA, FmlH binding to desialylated bovine submaxillary mucin, average of four or more replicates
molecule,measurement,setting,value
"CC(=O)N[C@H]1[C@H](Oc2cccc(F)c2-c2cccc(NS(C)(=O)=O)c2)O[C@H](CO)[C@H](O)[C@@H]1O [Compound 80, N-((2S,3R,4R,5R,6R)-2-((6-Fluoro-3’-(methylsulfonamido)-[1,1’- biphenyl]-2-yl)oxy)-4,5-dihydroxy-6-(hydroxymethyl)tetrahydro-2H-pyran-3-yl)acetamide]",solubility kinetic,[1],197 µM
same,IC50,[2]; [9],88 nM
"CC(=O)NC1[C@H](Oc2cccc(C(F)(F)F)c2-c2cccc(NS(C)(=O)=O)c2)O[C@H](CO)[C@H](O)[C@@H]1O (stereo in doubt) [Compound 90, N-((2S,3S,4R,5R)-4,5-Dihydroxy-6-(hydroxymethyl)-2-((3’-(meth-ylsulfonamido)-6-(trifluoromethyl)-[1,1’-biphenyl]-2-yl)oxy)-tetrahydro-2H-pyran-3-yl)acetamide]",renal clearance to the urine,[3],low renal clearance to the urine
same,clearance,"[3]; plasma, iv, 3 mg/kg",57 mL/min/kg
same,fold greater potency / improvement in activity relative to 1,[2]; ELISA IC50 ratio,~20 fold
same,IC50,[2]; [9],34 nM
"CC(=O)N[C@H]1[C@H](Oc2cccc(C)c2-c2cccc(NS(C)(=O)=O)c2)O[C@H](CO)[C@H](O)[C@@H]1O [Compound 84, N-((2S,3R/4R/5R,6R)-4/5-Dihydroxy-6-(hydroxymethyl)-2-((6-methyl-3’-(methylsulfonamido)-[1,1’-biphenyl]-2-yl)oxy)-tetrahydro-2H-pyran-3-yl)acetamide]",solubility kinetic,[1],195 µM
same,IC50,[2]; [9],62 nM
same,IC50,"[2]; IC50 expressed as a concentration, converted from IC50 of 120 nM",120 nM
"CC(=O)N[C@H]1[C@H](Oc2cccc(C)c2-c2cccc(NS(=O)(=O)C3CC3)c2)O[C@H](CO)[C@H](O)[C@@H]1O [Compound 86, N-((2S,3R,4R,5R,6R)-2-((3’-(Cyclopropanesulfonamido)-6-meth-yl-[1,1’-biphenyl]-2-yl)oxy)-4,5-dihydroxy-6-(hydroxymethyl)-tetrahydro-2H-pyran-3-yl)acetamide]",solubility kinetic,[1],196 µM
same,renal clearance to the urine,[3],low renal clearance to the urine
same,IC50,[2]; [9],51 nM
CC(=O)N[C@H]1[C@H](Oc2ccccc2-c2cccc(C(=O)O)c2)O[C@H](CO)[C@H](O)[C@@H]1O [Compound 1],effect on bacterial titers in bladder and kidney,"[4]; co-administration with 4Z269, a mannoside inhibitor of FimH",further reduced bacterial titers in both the bladder and kidney
same,effect on bladder and kidney CFUs,[4]; treatment model of chronic cystitis,significantly reduce bladder and kidney CFUs
same,IC50,[2]; [9],640 nM
"N-((2S,3S,4R,5R)-4/5-Dihydro xy-6-(hydroxymethyl)-2-((6-methyl-3’-(methylsulfonamido)-[1,1’-biphenyl]-2-yl)oxy)tetrahydro-2H-pyran-3-yl)-2,2,2-trifluoroacetimidic Acid [Compound 88]",kinetic solubility,[1]; aqueous,164 µM
same,SIF (% remaining @ 2 h),[5],89%
same,mouse liver microsomes (t1/2 min),[6],>2.42 h
same,mouse plasma (% remaining @ 2 h),[7],89%
same,SGF (% remaining @ 6 h),[8],91%
same,IC50,"[2]; ELISA, FmlH binding to desialylated bovine submaxillary mucin, average of four or more replicates",48 nM
"COC(=O)Nc1cccc(-c2ccccc2O[C@@H]2O[C@H](CO)[C@H](O)[C@H](O)[C@H]2NC(C)=O)c1 [Compound 45, Methyl(2’-(((2S,3R/4R/5R,6R)-3-Acetamido-4/5-dihydroxy-6-(hydroxymethyl)tetrahydro-2H-pyran-2-yl)oxy)-[1,1’-biphenyl]-3 yl)carbamate]",IC50,[2]; [9],630 nM
"CC(=O)N[C@H]1[C@H](Oc2cccc(C(=O)OCc3ccccc3)c2-c2cccc(NS(C)(=O)=O)c2)O[C@H](CO)[C@H](O)[C@@H]1O [Compound 81, Benzyl6-(((2S,3S,4R,5R)-3-Acetamido-4,5-dihydroxy-6-(hydroxymethyl)tetrahydro-2H-pyran-2-yl)oxy)-3’-(methylsulfona-mido)-[1,1’-biphenyl]-2-carboxylate]",IC50,[2]; [9],89 nM
"CC(=O)N[C@H]1[C@H](Oc2ccccc2-c2cc(C(=O)O)cc([N+](=O)[O-])c2)O[C@H](CO)[C@H](O)[C@@H]1O [Compound 29, 2’-(((2S,3S/4R/5R)-3-Acetamido-4,5-dihydroxy-6-(hydroxymethyl)tetrahydro-2H-pyran-2-yl)oxy)-5-nitro-[1, 1’-bi-phenyl]-3-carboxylic Acid]",IC50,[2]; [9],2200 nM
"CC(=O)N[C@H]1[C@H](Oc2ccccc2-c2cccc(S(C)(=O)=O)c2)O[C@H](CO)[C@H](O)[C@@H]1O [Compound 41, N-((2S,3R,4R,5R,6R)-4,5-Dihydroxy-6-(hydroxymethyl)-2-((3’- (methylsulfonyl)-[1,1’-biphenyl]-2-yl)oxy)tetrahydro-2H-pyran-3-yl)acetamide]",IC50,[2]; [9],700 nM
"CC(=O)N[C@H]1[C@H](Oc2ccccc2-c2cccc(C#N)c2)O[C@H](CO)[C@H](O)[C@@H]1O [Compound 39, N-((2S,3R,4R,5R,6R)-2-((3’-Cyano-[1,1’-biphenyl]-2-yl)oxy)-4,5-dihydroxy-6-(hydroxymethyl)tetrahydro-2H-pyran-3-yl)acetamide]",IC50,[2]; [9],970 nM
